# Molecular target: AMPK
# Experiment: AMPK activation, enzyme-linked immunosorbent assay
# Type: biochemical
# Conditions: Table 12, compounds of Table 5
# Procedure, shortened: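 Read-out: ELISA, used to detect compound-driven activation of AMPK.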
row,EC50,SMILES
1,< 1000 nM,"O=C(NC1CCN(Cc2ccc(F)cc2)CC1)c1ccc(OC2CCN(c3ccc(C(F)(F)F)cc3)CC2)c(F)c1 [Compound 5-27, 3-fluoro-N-(1-(4-fluorobenzyl)piperidin-4-yl)-4-(1-(4-(trifluoromethyl)phenyl)piperidin-4-yloxy)benzamide]"
2,< 1000 nM,"O=C(NC1CCN(Cc2ccncc2)CC1)c1ccc(OC2CCN(c3ccc(C(F)(F)F)cc3)CC2)c(F)c1 [Compound 5-28, 3-fluoro-N-(1-(pyridin-4-ylmethyl)piperidin-4-yl)-4-(1-(4-(trifluoromethyl)phenyl)piperidin-4-yloxy)benzamide]"
3,< 1000 nM,"O=C(NC1CCN(Cc2cccnc2)CC1)c1ccc(OC2CCN(c3ccc(C(F)(F)F)cc3)CC2)c(F)c1 [Compound 5-29, 3-fluoro-N-(1-(pyridin-3-ylmethyl)piperidin-4-yl)-4-(1-(4-(trifluoromethyl)phenyl)piperidin-4-yloxy)benzamide]"
4,< 1000 nM,"CC(C)(C)C(=O)N1CCC(NC(=O)c2ccc(OC3CCN(c4ccc(C(F)(F)F)cc4)CC3)c(F)c2)CC1 [Compound 5-30, 3-fluoro-N-(1-pivaloylpiperidin-4-yl)-4-(1-(4-(trifluoromethyl)phenyl)piperidin-4-yloxy)benzamide]"
5,< 1000 nM,"O=C(NC1CCN(C(=O)c2ccc(F)cc2)CC1)c1ccc(OC2CCN(c3ccc(C(F)(F)F)cc3)CC2)c(F)c1 [Compound 5-31, 3-fluoro-N-(1-(4-fluorobenzoyl)piperidin-4-yl)-4-(1-(4-(trifluoromethyl)phenyl)piperidin-4-yloxy)benzamide]"
6,< 1000 nM,"O=C(NC1CCN(Cc2ccccn2)CC1)c1ccc(OC2CCN(c3ccc(C(F)(F)F)cc3)CC2)c(F)c1 [Compound 5-32, 3-fluoro-N-(1-(pyridin-2-ylmethyl)piperidin-4-yl)-4-(1-(4-(trifluoromethyl)phenyl)piperidin-4-yloxy)benzamide]"
7,< 1000 nM,"COC(=O)c1ccc(CN2CCC(NC(=O)c3ccc(OC4CCN(c5ccc(C(F)(F)F)cc5)CC4)c(F)c3)CC2)cc1 [Compound 5-33, methyl 4-((4-(3-fluoro-4-(1-(4-(trifluoromethyl)phenyl)piperidin-4-yloxy)benzamido)piperidin-1-yl)methyl)benzoate]"
8,< 1000 nM,"CC(C)S(=O)(=O)N1CCC(NC(=O)c2ccc(OC3CCN(c4ccc(C(F)(F)F)cc4)CC3)c(F)c2)CC1 [Compound 5-34, 3-fluoro-N-(1-(isopropylsulfonyl)piperidin-4-yl)-4-(1-(4-(trifluoromethyl)phenyl)piperidin-4-yloxy)benzamide]"
9,1000 to 10000 nM,"O=C(O)c1ccc(CN2CCC(NC(=O)c3ccc(OC4CCN(c5ccc(C(F)(F)F)cc5)CC4)c(F)c3)CC2)cc1 [Compound 5-35, 4-((4-(3-fluoro-4-(1-(4-(trifluoromethyl)phenyl)piperidin-4-yloxy)benzamido)piperidin-1-yl)methyl)benzoic acid]"
10,< 1000 nM,"CC(C)(C)c1ccc(CN2CCC(Oc3ccc(C(=O)NC4CCN(c5ccccc5)CC4)cc3F)CC2)cc1 [Compound 5-36, 4-(1-(4-tert-butylbenzyl)piperidin-4-yloxy)-3-fluoro-N-(1-phenylpiperidin-4-yl)benzamide]"
11,< 1000 nM,"O=C(NC1CCN(Cc2ccccc2)CC1)c1ccc(OC2CCN(Cc3ccncc3)CC2)c(F)c1 [Compound 5-37, N-(1-benzylpiperidin-4-yl)-3-fluoro-4-(1-(pyridin-4-ylmethyl)piperidin-4-yloxy)benzamide]"
12,1000 to 10000 nM,"O=C(NC1CCN(Cc2ccccc2)CC1)c1ccc(OC2CCN(Cc3cccnc3)CC2)c(F)c1 [Compound 5-38, N-(1-benzylpiperidin-4-yl)-3-fluoro-4-(1-(pyridin-3-ylmethyl)piperidin-4-yloxy)benzamide]"
13,1000 to 10000 nM,"O=C(NC1CCN(Cc2ccccc2)CC1)c1ccc(OC2CCN(Cc3ccccn3)CC2)c(F)c1 [Compound 5-39, N-(1-benzylpiperidin-4-yl)-3-fluoro-4-(1-(pyridin-2-ylmethyl)piperidin-4-yloxy)benzamide]"
14,< 1000 nM,"O=C(NC1CCN(C(=O)c2ccncc2)CC1)c1ccc(OC2CCN(c3ccc(C(F)(F)F)cc3)CC2)c(F)c1 [Compound 5-40, 3-fluoro-N-(1-isonicotinoylpiperidin-4-yl)-4-(1-(4-(trifluoromethyl)phenyl)piperidin-4-yloxy)benzamide]"
15,< 1000 nM,"N#Cc1ccc(CN2CCC(Oc3ccc(C(=O)NC4CCN(Cc5ccccc5)CC4)cc3F)CC2)cc1 [Compound 5-41, N-(1-benzylpiperidin-4-yl)-4-(1-(4-cyanobenzyl)piperidin-4-yloxy)-3-fluorobenzamide]"
16,< 1000 nM,"N#Cc1ccc(CN2CCC(NC(=O)c3ccc(OC4CCN(c5ccc(C(F)(F)F)cc5)CC4)c(F)c3)CC2)cc1 [Compound 5-43, N-(1-(4-cyanobenzyl)piperidin-4-yl)-3-fluoro-4-(1-(4-(trifluoromethyl)phenyl)piperidin-4-yloxy)benzamide]"
17,< 1000 nM,"N#Cc1ccc(N2CCC(Oc3ccc(C(=O)NC4CCN(Cc5ccncc5)CC4)cc3F)CC2)cc1 [Compound 5-44, 4-(1-(4-cyanophenyl)piperidin-4-yloxy)-3-fluoro-N-(1-(pyridin-4-ylmethyl)piperidin-4-yl)benzamide]"
18,< 1000 nM,"N#Cc1ccc(CN2CCC(NC(=O)c3ccc(OC4CCN(c5ccc(C#N)cc5)CC4)c(F)c3)CC2)cc1 [Compound 5-45, N-(1-(4-cyanobenzyl)piperidin-4-yl)-4-(1-(4-cyanophenyl)piperidin-4-yloxy)-3-fluorobenzamide]"

row,EC50,SMILES
1,< 1000 nM,"O=C(NC1CCN(Cc2ccccc2)CC1)c1cccc(OC2CCN(c3ccc(C(F)(F)F)cc3)CC2)c1 [Compound 5-46, N-(1-benzylpiperidin-4-yl)-3-(1-(4-(trifluoromethyl)phenyl)piperidin-4-yloxy)benzamide]"
2,< 1000 nM,"O=C(NC1CCN(Cc2ccccc2)CC1)c1ccc(OC2CCN(c3ccc(C(F)(F)F)cc3)CC2)cc1Cl [Compound 5-47, N-(1-benzylpiperidin-4-yl)-2-chloro-4-(1-(4-(trifluoromethyl)phenyl)piperidin-4-yloxy)benzamide]"
3,< 1000 nM,"N#Cc1ccc(N2CCC(Oc3cccc(C(=O)NC4CCN(Cc5ccccc5)CC4)c3)CC2)cc1 [Compound 5-48, N-(1-benzylpiperidin-4-yl)-3-(1-(4-cyanophenyl)piperidin-4-yloxy)benzamide]"
4,< 1000 nM,"N#Cc1ccc(N2CCC(Oc3ccc(C(=O)NC4CCN(Cc5ccccc5)CC4)c(Cl)c3)CC2)cc1 [Compound 5-49, N-(1-benzylpiperidin-4-yl)-2-chloro-4-(1-(4-cyanophenyl)piperidin-4-yloxy)benzamide]"
5,1000 to 10000 nM,"N#Cc1ccc(CN2CCC(Oc3cccc(C(=O)NC4CCN(Cc5ccccc5)CC4)c3)CC2)cc1 [Compound 5-50, N-(1-benzylpiperidin-4-yl)-3-(1-(4-cyanobenzyl)piperidin-4-yloxy)benzamide]"
6,< 1000 nM,"N#Cc1ccc(CN2CCC(Oc3ccc(C(=O)NC4CCN(Cc5ccccc5)CC4)c(Cl)c3)CC2)cc1 [Compound 5-51, N-(1-benzylpiperidin-4-yl)-2-chloro-4-(1-(4-cyanobenzyl)piperidin-4-yloxy)benzamide]"
7,1000 to 10000 nM,"O=C(NC1CCN(Cc2ccccc2)CC1)c1cccc(OC2CCN(Cc3ccc(C(F)(F)F)cc3)CC2)c1 [Compound 5-52, N-(1-benzylpiperidin-4-yl)-3-(1-(4-(trifluoromethyl)benzyl)piperidin-4-yloxy)benzamide]"
8,10000 to 20000 nM,"O=C(NC1CCN(Cc2ccccc2)CC1)c1cccc(OC2CCN(c3ccncc3)CC2)c1 [Compound 5-53, N-(1-benzylpiperidin-4-yl)-3-(1-(pyridin-4-yl)piperidin-4-yloxy)benzamide]"
9,< 1000 nM,"O=C(NC1CCN(Cc2ccccc2)CC1)c1ccc(OC2CCN(Cc3ccc(OC(F)(F)F)cc3)CC2)c(Cl)c1 [Compound 5-54, N-(1-benzylpiperidin-4-yl)-3-chloro-4-(1-(4-(trifluoromethoxy)benzyl)piperidin-4-yloxy)benzamide]"
10,< 1000 nM,"O=C(NC1CCN(Cc2ccccc2)CC1)c1ccc(OC2CCN(Cc3ccc(C(F)(F)F)cc3)CC2)c(F)c1 [Compound 5-55, N-(1-benzylpiperidin-4-yl)-3-fluoro-4-(1-(4-(trifluoromethyl)benzyl)piperidin-4-yloxy)benzamide]"
11,< 1000 nM,"O=C(NC1CCN(Cc2ccccc2)CC1)c1ccc(OC2CCN(Cc3ccc(C(F)(F)F)cc3)CC2)c(Cl)c1 [Compound 5-56, N-(1-benzylpiperidin-4-yl)-3-chloro-4-(1-(4-(trifluoromethyl)benzyl)piperidin-4-yloxy)benzamide]"
12,< 1000 nM,"O=C(NC1CCN(Cc2ccccc2)CC1)c1ccc(OC2CCN(Cc3ccc(OC(F)(F)F)cc3)CC2)c(F)c1 [Compound 5-57, N-(1-benzylpiperidin-4-yl)-3-fluoro-4-(1-(4-(trifluoromethoxy)benzyl)piperidin-4-yloxy)benzamide]"
13,1000 to 10000 nM,"CN1CCC(NC(=O)c2ccc(OC3CCN(Cc4ccc(C(F)(F)F)cc4)CC3)c(Cl)c2)CC1 [Compound 5-58, 3-chloro-N-(1-methylpiperidin-4-yl)-4-(1-(4-(trifluoromethyl)benzyl)piperidin-4-yloxy)benzamide]"
14,< 1000 nM,"O=C(NC1CCN(Cc2ccccc2)CC1)c1ccc(OC2CCN(Cc3cccc(C(F)(F)F)c3)CC2)c(F)c1 [Compound 5-59, N-(1-benzylpiperidin-4-yl)-3-fluoro-4-(1-(3-(trifluoromethyl)benzyl)piperidin-4-yloxy)benzamide]"
15,< 1000 nM,"O=C(NC1CCN(Cc2ccccc2)CC1)c1ccc(OC2CCN(Cc3cccc(C(F)(F)F)c3)CC2)c(Cl)c1 [Compound 5-60, N-(1-benzylpiperidin-4-yl)-3-chloro-4-(1-(3-(trifluoromethyl)benzyl)piperidin-4-yloxy)benzamide]"
16,< 1000 nM,"O=C(NC1CCN(Cc2ccccc2)CC1)c1ccc(OC2CCN(Cc3ccc(F)cc3)CC2)c(F)c1 [Compound 5-61, N-(1-benzylpiperidin-4-yl)-3-fluoro-4-(1-(4-fluorobenzyl)piperidin-4-yloxy)benzamide]"
17,< 1000 nM,"O=C(NC1CCN(Cc2ccccc2)CC1)c1cc(Cl)c(OC2CCN(Cc3cccc(C(F)(F)F)c3)CC2)c(Cl)c1 [Compound 5-62, N-(1-benzylpiperidin-4-yl)-3,5-dichloro-4-(1-(3-(trifluoromethyl)benzyl)piperidin-4-yloxy)benzamide]"

# From US9409884B2 (Rigel Pharmaceuticals, Inc., priority 2012, dated 2016)
